Laboratory results from patent US11780826B2 (Amgen Inc., priority 2017, dated 2023).

System: Bovine cardiac myofibrils
Assay: In vitro model of dose-dependent myofibril ATPase modulation (AC1.4, pyruvate kinase/lactate dehydrogenase-coupled ATPase assay at pCa25)
Type: biochemical
Settings: concentration at which ATPase activity was 1.4-fold higher than the bottom of the dose curve, mean of a minimum of two independent tests
In short: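 ATP turnover tracked as NADH absorbance loss at 340 nm, coupled via pyruvate kinase/lactate dehydrogenase, with 1 mM ATP, 2 mM MgCl2 and 12 mM K-PIPES at pH 6.80 (22° C) under EGTA/CaCl2 calcium buffering. Substrate was detergent-treated bovine cardiac myofibrils; 4-parameter curve fit, AC1.4 averaged over at least two runs.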

Row | Structure (SMILES) | AC1.4 [µM]
1 | CC[C@H](NC(=O)[C@H]1CCCN1C(=O)c1cccc(S(=O)(=O)N2CC(C#N)C2)c1)c1ccc(C(F)(F)F)cc1 [Example 85, 1-(3-((3-cyano-1-azetidinyl)sulfonyl)benzoyl)-N-((1S)-1-(4-(trifluoromethyl)phenyl)propyl)-D-prolinamide] | 0.1157
2 | N#CC1CN(S(=O)(=O)c2cccc(C(=O)N3CCC[C@@H]3C(=O)N[C@@H](CO)c3cccc(C(F)(F)F)c3)c2)C1 [Example 386, 1-(3-((3-cyano-1-azetidinyl)sulfonyl)benzoyl)-N-((1R)-2-hydroxy-1-(3-(trifluoromethyl)phenyl)ethyl)-D-prolinamide] | 1.3335
3 | C[C@@H](NC(=O)[C@H]1COCCN1C(=O)c1cccc(S(=O)(=O)N2CC(C#N)C2)c1)c1ccc(C(F)(F)F)cc1 [Example 19, (R)-4-(3-((3-cyanoazetidin-1-yl)sulfonyl)benzoyl)-N—((R)-1-(4-(trifluoromethyl)phenyl)ethyl)morpholine-3-carboxamide] | 0.02495
4 | N#CC1CN(S(=O)(=O)c2cccc(C(=O)N3CCC[C@@H]3C(=O)NCc3ccc(Cl)c(F)c3)c2)C1 [Example 64, N-(4-chloro-3-fluorobenzyl)-1-((3-((3-cyano-1-azetidinyl)sulfonyl)phenyl)carbonyl)-D-prolinamide] | 0.0744
5 | O=C(N[C@@H](c1ccc(C(F)(F)F)cc1F)C1CC1)[C@H]1CCCN1C(=O)c1cccc(S(=O)(=O)C2CC2)c1 [Example 223, N-((R)-cyclopropyl(2-fluoro-4-(trifluoromethyl)phenyl)methyl)-1-(3-(cyclopropylsulfonyl)benzoyl)-D-prolinamide] | 0.4842
6 | N#CC1CN(S(=O)(=O)c2cccc(C(=O)N3C[C@H](F)C[C@@H]3C(=O)NCc3ccc(C(F)(F)F)cc3)c2)C1 [Example 122, (4R)-1-((3-((3-cyano-1-azetidinyl)sulfonyl)phenyl)carbonyl)-4-fluoro-N-(4-(trifluoromethyl)benzyl)-D-prolinamide] | 0.1858
7 | O=C(N[C@@H](c1cc(F)c(Cl)cc1F)C1COC1)[C@H]1C[C@H]2C[C@H]2N1C(=O)c1cccc(S(=O)(=O)CCO)c1 [Example 94, (1R,3R,5R)-N-((R)-(4-chloro-2,5-difluorophenyl)(3-oxetanyl)methyl)-2-(3-((2-hydroxyethyl)sulfonyl)benzoyl)-2-azabicyclo[3.1.0]hexane-3-carboxamide] | 0.1425
8 | N#CC1CN(S(=O)(=O)c2cccc(C(=O)N3CCC[C@@H]3C(=O)NCc3ccccc3Cl)c2)C1 [Example 396, N-(2-chlorobenzyl)-1-((3-((3-cyano-1-azetidinyl)sulfonyl)phenyl)carbonyl)-D-prolinamide] | 1.3975
9 | C[C@H](C(=O)NCc1ccc(Cl)c(Cl)c1)N(C)C(=O)c1cccc(S(=O)(=O)N2CC(C#N)C2)c1 [Example 341, 3-((3-cyano-1-azetidinyl)sulfonyl)-N-((1R)-2-((3,4-dichlorobenzyl)amino)-1-methyl-2-oxoethyl)-N-methylbenzamide] | 0.9606
10 | Cc1c(CNC(=O)[C@H]2CCCN2C(=O)[C@H]2CCCN(S(=O)(=O)N3CC(C#N)C3)C2)cccc1C(F)(F)F [Example 145, 1-(((3S)-1-((3-cyano-1-azetidinyl)sulfonyl)-3-piperidinyl)carbonyl)-N-(2-methyl-3-(trifluoromethyl)benzyl)-D-prolinamide] | 0.2465
11 | CC[C@@H](NC(=O)[C@H]1CCCN1C(=O)c1cccc(S(=O)(=O)N(C)C)c1)c1ccc(C(F)(F)F)cc1F [Example 146, 1-(3-(dimethylsulfamoyl)benzoyl)-N-((1R)-1-(2-fluoro-4-(trifluoromethyl)phenyl)propyl)-D-prolinamide] | 0.2474
12 | CS(=O)(=O)c1cccc(C(=O)N2CCC[C@@H]2C(=O)N[C@@H](c2ccc(C(F)(F)F)c(F)c2)C2COC2)c1 [Example 179, N-((R)-(3-fluoro-4-(trifluoromethyl)phenyl)(3-oxetanyl)methyl)-1-(3-(methylsulfonyl)benzoyl)-D-prolinamide] | 0.3231
13 | N#CC1CN(S(=O)(=O)c2cccc(C(=O)N3CCC[C@@H]3C(=O)NCc3ccc(Cl)c(Cl)c3)c2)C1 [Example 22, 1-((3-((3-cyano-1-azetidinyl)sulfonyl)phenyl)carbonyl)-N-(3,4-dichlorobenzyl)-D-prolinamide] | 0.02715
14 | C[C@@H](NC(=O)[C@H]1CCCN1C(=O)c1cccc(S(=O)(=O)N2CC(C#N)C2)c1)c1ccc(C(F)(F)F)cc1 [Example 41, 1-((3-((3-cyano-1-azetidinyl)sulfonyl)phenyl)carbonyl)-N-((1R)-1-(4-(trifluoromethyl)phenyl)ethyl)-D-prolinamide] | 0.04135
15 | N#CC1CN(S(=O)(=O)c2cccc(C(=O)N3Cc4ccccc4C3C(=O)NCc3ccc(C(F)(F)F)cc3)c2)C1 (stereo not shown) [Example 93, 2-((3-((3-cyano-1-azetidinyl)sulfonyl)phenyl)carbonyl)-N-(4-(trifluoromethyl)benzyl)-2,3-dihydro-1H-isoindole-1-carboxamide] | 0.1413
16 | O=C(NCc1ccc(C(F)(F)F)cc1)[C@H]1CCCN1C(=O)[C@H]1CCCN(S(=O)(=O)N2CCC2c2cccc(F)c2)C1 (stereo partly drawn) [Example 166, 1-(((3S)-1-((-2-(3-fluorophenyl)-1-azetidinyl)sulfonyl)-3-piperidinyl)carbonyl)-N-(4-(trifluoromethyl)benzyl)-D-prolinamide] | 0.2807
17 | CCCS(=O)(=O)c1cccc(C(=O)N2CCCC[C@@H]2C(=O)N[C@@H](c2ccc(C(F)(F)F)cc2F)C2CC2)c1 [Example 89, (2R)-N-((R)-cyclopropyl(2-fluoro-4-(trifluoromethyl)phenyl)methyl)-1-(3-(propylsulfonyl)benzoyl)-2-piperidinecarboxamide] | 0.1357

More lines, now with the values ahead:

Row | AC1.4 [µM] | Structure (SMILES)
18 | 5.023 | O=C(NCc1ccc(C(F)(F)F)cc1)[C@H]1CCCN1C(=O)[C@H]1CCCN(S(=O)(=O)N2CC(n3cncn3)C2)C1 [Example 679, 1-(((3S)-1-((3-(1H-1,2,4-triazol-1-yl)-1-azetidinyl)sulfonyl)-3-piperidinyl)carbonyl)-N-(4-(trifluoromethyl)benzyl)-D-prolinamide]
19 | 4.4705 | N#CC1CN(S(=O)(=O)N2CCC[C@H](C(=O)N3CCC[C@@H]3C(=O)NCc3cc(Cl)ccc3Cl)C2)C1 [Example 651, 1-(((3S)-1-((3-cyano-1-azetidinyl)sulfonyl)-3-piperidinyl)carbonyl)-N-(2,5-dichlorobenzyl)-D-prolinamide]
20 | 1.4065 | C[C@H](O)[C@@H](NC(=O)[C@H]1C[C@H]2C[C@H]2N1C(=O)c1cccc(S(C)(=O)=O)c1)c1cc(F)c(Cl)cc1F [Example 405, (1R,3R,5R)-N-((1S,2S)-1-(4-chloro-2,5-difluorophenyl)-2-hydroxypropyl)-2-(3-(methylsulfonyl)benzoyl)-2-azabicyclo[3.1.0]hexane-3-carboxamide]
21 | 6.27 | O=C(NCc1ccc(C(F)(F)F)cc1)[C@H]1CCCN1C(=O)[C@H]1CCCN(S(=O)(=O)N2CCC2Cc2ccccc2)C1 (stereo partly drawn) [Example 720, (2R)-1-((3S)-1-((2-benzylazetidin-1-yl)sulfonyl)piperidine-3-carbonyl)-N-(4-(trifluoromethyl)benzyl)pyrrolidine-2-carboxamide]
22 | 5.299 | NS(=O)(=O)c1ccc(Cl)c(C(=O)N2CCC[C@@H]2C(=O)N[C@@H](c2ccc(C(F)(F)F)cc2F)C2CC2)c1 [Example 687, 1-(2-chloro-5-sulfamoylbenzoyl)-N-((R)-cyclopropyl(2-fluoro-4-(trifluoromethyl)phenyl)methyl)-D-prolinamide]
23 | 3.4595 | COc1ccc(S(C)(=O)=O)cc1C(=O)N1CCC[C@@H]1C(=O)N[C@@H](c1ccc(C(F)(F)F)cc1F)C1CC1 [Example 602, N-((R)-cyclopropyl(2-fluoro-4-(trifluoromethyl)phenyl)methyl)-1-(2-methoxy-5-(methylsulfonyl)benzoyl)-D-prolinamide]
24 | 3.224 | O=C(N[C@@H](c1ccc(C(F)(F)F)cc1F)C1CC1)[C@H]1C[C@H]2C[C@H]2N1C(=O)c1cc(C(F)(F)F)ccn1 [Example 573, (1R,3R,5R)-N-((R)-cyclopropyl(2-fluoro-4-(trifluoromethyl)phenyl)methyl)-2-((4-(trifluoromethyl)-2-pyridinyl)carbonyl)-2-azabicyclo[3.1.0]hexane-3-carboxamide]
25 | 3.397 | CN(C)c1cccc(C(=O)N2CCC[C@@H]2C(=O)N[C@@H](c2ccc(C(F)(F)F)cc2F)C2CC2)c1 [Example 584, N-((R)-cyclopropyl(2-fluoro-4-(trifluoromethyl)phenyl)methyl)-1-(3-(dimethylamino)benzoyl)-D-prolinamide]
26 | 3.4675 | N#CC1CN(S(=O)(=O)N2CCC[C@H](C(=O)N3CCC[C@@H]3C(=O)NCC3CCC(C(F)(F)F)CC3)C2)C1 (stereo partly drawn) [Example 590, 1-(((3S)-1-((3-cyano-1-azetidinyl)sulfonyl)-3-piperidinyl)carbonyl)-N-((cis-4-(trifluoromethyl)cyclohexyl)methyl)-D-prolinamide,1-(((3S)-1-((3-cyano-1-azetidinyl)sulfonyl)-3-piperidinyl)carbonyl)-N-((4-(trifluoromethyl)cyclohexyl)methyl)-D-prolinamide]
27 | 2.181 | O=C(N[C@@H](c1ccc(C(F)(F)F)c(F)c1)C1CC1)[C@H]1C[C@H]2C[C@H]2N1C(=O)c1cncc(S(=O)(=O)C2CC2)c1 [Example 491, (1R,3R,5R)-N-((R)-cyclopropyl(3-fluoro-4-(trifluoromethyl)phenyl)methyl)-2-((5-(cyclopropylsulfonyl)-3-pyridinyl)carbonyl)-2-azabicyclo[3.1.0]hexane-3-carboxamide]
28 | 1.866 | CS(=O)(=O)c1cccc(C(=O)N2CC3(CCC3)[C@@H]2C(=O)N[C@@H](c2ccc(C(F)(F)F)cc2F)C2CC2)c1 [Example 475, (1R)-N-((R)-cyclopropyl(2-fluoro-4-(trifluoromethyl)phenyl)methyl)-2-(3-(methylsulfonyl)benzoyl)-2-azaspiro[3.3]heptane-1-carboxamide]
